Some test systems named below: NCI-H460 lung; MCF7 breast; RPMI-8226 leukemia; MDA-MB-435; MDA-MB-231 breast; SN12C renal; SK-MEL-5 melanoma; SF-295 CNS; CAKI-1 renal; MDA-N.
What all share (experiment): NCI anticancer screen, dose series, 48 h

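The compound was tested at five concentrations on cells cultured in 96-well plates, with a 48-hour exposure period. At the TGI there is no net growth.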

As for `COc1cc(Br)cc2cc(-c3cn4c(n3)sc3ccccc34)c(=O)oc12`, the TGI with NCI-H460 lung was > 75 µM; with MCF7 breast, > 75 µM; in the test with RPMI-8226 leukemia it was 49.8 µM; in the test with MDA-MB-435, > 75 µM; in the test with MDA-MB-231 breast, 72.5 µM; with SN12C renal, > 75 µM. In addition, the TGI with SK-MEL-5 melanoma was > 75 µM; with SF-295 CNS, 58.4 µM; in the test on CAKI-1 renal, > 75 µM.
As for `CC1CC2=C(S(=O)(=O)c3ccccc3)CC(S(=O)(=O)c3ccccc3)(S(=O)(=O)c3ccccc3)CC21` (stereo not drawn), the TGI with NCI-H460 lung, in the test on RPMI-8226 leukemia, in the test on SN12C renal, in the test on SK-MEL-5 melanoma and with SF-295 CNS was > 100 µM each time.
As for `O=C(NC(Cc1ccccc1)(Cc1ccc(O)cn1)C(=O)O)c1ccccc1` (stereo not drawn), the TGI with NCI-H460 lung, with MDA-N, in the test with RPMI-8226 leukemia, in the test with MDA-MB-435, with MDA-MB-231 breast and in the test on SK-MEL-5 melanoma was > 100 µM throughout. Moreover, the TGI in the test with SF-295 CNS and in the test with CAKI-1 renal was > 100 µM throughout.
In the case of `O=C1c2ccsc2C(=O)c2sc(CO)cc21`, the TGI is 2.17 µM with NCI-H460 lung; < 0.0177 µM with MDA-N; < 0.0178 µM with MDA-MB-435; 0.48 µM in the test with MDA-MB-231 breast; 0.0818 µM in the test on SN12C renal; 0.0163 µM in the test on SK-MEL-5 melanoma. In addition, the TGI in the test with SF-295 CNS amounted to 0.951 µM; with CAKI-1 renal, 9.69 µM.
For `C=C(C)[C@H]1Cc2c(ccc3c2O[C@@H]2COc4cc(OC)c(OC)cc4[C@@H]2C3=O)O1`, the TGI with NCI-H460 lung was 15.8 µM; in the test with MCF7 breast, > 84.2 µM; in the test on RPMI-8226 leukemia, 8.84 µM; in the test on MDA-MB-435 it was 0.0642 µM; with MDA-MB-231 breast, 44.7 µM; in the test on SN12C renal it was 67.5 µM. For the same compound, the TGI came out at 3.04 µM in the test with SK-MEL-5 melanoma, 38 µM with SF-295 CNS and 63.8 µM with CAKI-1 renal.
Consider `O=c1cc(-c2ccc(Oc3ccccc3)cc2)[nH]c2cc3c(cc12)OCO3`, for which the TGI in the test with NCI-H460 lung, with RPMI-8226 leukemia, in the test on SN12C renal, in the test with SK-MEL-5 melanoma and in the test with SF-295 CNS was > 100 µM in each case.
With `CC(=O)ONC(C(=O)C(C)(C)C)C(=O)C(C)(C)C`, the TGI in the test on NCI-H460 lung, in the test on MDA-N, with MCF7 breast, in the test on RPMI-8226 leukemia, in the test on MDA-MB-231 breast and with SN12C renal was > 100 µM each time. For the same compound, the TGI in the test with SK-MEL-5 melanoma, with SF-295 CNS and with CAKI-1 renal was > 100 µM each time.
Consider `CC1(C)OC(=O)N(c2ccccc2)C12C=Cc1cc([N+](=O)[O-])ccc1O2` (stereo not drawn), for which the TGI in the test with NCI-H460 lung was > 100 µM; in the test with MDA-N, 50.8 µM; in the test on RPMI-8226 leukemia it was > 100 µM; in the test on MDA-MB-435, 62.8 µM; in the test with MDA-MB-231 breast it was 80.4 µM; with SN12C renal, > 100 µM. Also, the TGI with SK-MEL-5 melanoma, in the test with SF-295 CNS and with CAKI-1 renal was > 100 µM each time.
For `COC(=O)Nc1nc2ccc(S(=O)(=O)SC)cc2[nH]1`, the TGI in the test with NCI-H460 lung is > 100 µM; in the test with MCF7 breast, 27 µM; in the test with RPMI-8226 leukemia it was > 100 µM; with MDA-MB-435, 12.2 µM; in the test with MDA-MB-231 breast, 40.1 µM; in the test on SN12C renal, 37.1 µM. Also, the TGI with SK-MEL-5 melanoma, with SF-295 CNS and in the test on CAKI-1 renal was > 100 µM each time.
Take `COCc1nc2c(OC)c(-c3nc4nc(N5CCN(C)CC5)ccc4[nH]3)cc(OC)c2n1C`: the TGI was 78.8 µM with NCI-H460 lung; > 100 µM in the test with MDA-N; 59.1 µM in the test with RPMI-8226 leukemia; 48.4 µM with MDA-MB-435; 46.4 µM in the test with MDA-MB-231 breast; > 100 µM with SN12C renal. Besides, the TGI in the test on SF-295 CNS was 92.9 µM; in the test with CAKI-1 renal it was > 100 µM.
Consider `O=C1NC2O[C@H](CNC(=O)c3cc(Br)c[nH]3)CC2(O)N1` (mixture of isomers), for which the TGI with NCI-H460 lung, with MCF7 breast, with RPMI-8226 leukemia, with MDA-MB-435, in the test with MDA-MB-231 breast and in the test with SN12C renal was > 100 µM throughout. The TGI with SK-MEL-5 melanoma, in the test with SF-295 CNS and in the test with CAKI-1 renal was > 100 µM each time.
Take `CCOC(=O)c1c(N2CCOCC2)[nH]c(=O)c(C(c2c(Cl)cccc2Cl)c2c(O)c(C(=O)OCC)c(N3CCOCC3)[nH]c2=O)c1O`: the TGI in the test on NCI-H460 lung is 45.2 µM; with MCF7 breast, 6.63 µM; with RPMI-8226 leukemia, 5.27 µM; in the test on MDA-MB-435 it was 12.1 µM; in the test with MDA-MB-231 breast it was 24.9 µM; in the test with SN12C renal it was 11.4 µM. Besides, the figures for the TGI with SK-MEL-5 melanoma, in the test on SF-295 CNS and in the test on CAKI-1 renal were 16.1 µM, 30.6 µM and 5.24 µM, respectively.
For `C[C@@H](c1ccccc1)n1c(N)c(C#N)c2ccc([N+](=O)[O-])cc2c1=O`, the TGI came to 36 µM in the test on NCI-H460 lung; 78.4 µM in the test on MDA-N; 61 µM in the test with MDA-MB-435; 37 µM in the test with MDA-MB-231 breast; 28.4 µM in the test on SN12C renal; 50.8 µM in the test on SK-MEL-5 melanoma. Besides, the TGI in the test on CAKI-1 renal stood at 39.3 µM.
`COc1ccc(S(=O)(=O)c2ccccc2[N+](=O)[O-])cc1`: the TGI with NCI-H460 lung, in the test with RPMI-8226 leukemia, in the test on SN12C renal, with SK-MEL-5 melanoma and with SF-295 CNS was > 100 µM throughout.
`O=[N+]([O-])c1ccc(S(=O)(=O)n2c3ccc(Br)cc3c3nc4ccccc4nc32)cc1`: the TGI in the test with NCI-H460 lung, with MDA-N, in the test on RPMI-8226 leukemia, in the test on MDA-MB-435, with MDA-MB-231 breast and in the test with SN12C renal was > 100 µM throughout. Besides, the TGI in the test with SK-MEL-5 melanoma, in the test with SF-295 CNS and in the test on CAKI-1 renal was > 100 µM each time.
